Results published in US12497393B2, “β-lactam compound, use thereof and preparation method therefor” (priority 2020, dated 2025).
Where two headings read alike, the source gives them in different places.

Experiments:
Test in all cases: Antibacterial activity MIC assay (two-fold dilution agar plating)
Assay type in all cases: cell-based
Proteus mirabilis = conditions: Proteus mirabilis, ATCC49565, Proteus mirabilis ATCC 49565; read-out: Minimal Inhibitory Concentration (MIC)
Procedure: (§1) Antibacterial Activity-Evaluating Method (MIC Assay)
(§2) In this study, the compounds of the present invention were tested for their antibacterial activities by using two-fold dilution agar plating method and Denley Multipoint Inoculator A400 according to the guidelines of the CLSI/NCCLS standard. The tested strains were amplified by hydrolyzed casein peptone (Mueller-Hinton Agar) broth and Brain and Heart Infusion. The strains used in this study were bacterial strains that were purchased from ATCC or clinically isolated in Chinese hospitals. Aztreonam, polymyxin or levofloxacin was used as positive control. The drugs were diluted with hydrolyzed casein peptone broth to the desired concentrations including 128.0, 64.0, 32.0, 16.0, 8.0, 4.0, 2.0, 1.0, 0.5, 0.25, 0.125, 0.06 and 0.03 μg/mL, and then placed respectively into each well and mixed thoroughly. After inoculation, the tested strains were incubated for 18 hours at a constant temperature of 35° C., and their growth levels were observed. The drug concentration with no microbial growth in the well was recorded as the lowest Minimal Inhibitory Concentration (MIC).

Enterobacter aerogenes = conditions: Klebsiella aerogenes, ATCC13048; Enterobacter aerogenes ATCC 13048; read-out: Minimal Inhibitory Concentration (MIC)
Procedure: as §1, §2

Klebsiella Pneumoniae = conditions: Klebsiella pneumoniae, read-out: Minimal Inhibitory Concentration (MIC)
Procedure: as §1, §2

Proteus vulgaris = conditions: Proteus vulgaris, ATCC29905, Proteus vulgaris ATCC 29905; read-out: Minimal Inhibitory Concentration (MIC)
Procedure: as §1, §2

Citrobacter freundii = conditions: ATCC43864; Citrobacter freundii ATCC 43864; read-out: Minimal Inhibitory Concentration (MIC)
Procedure: as §1, §2

Shigella flexneri = conditions: ATCC12022; Shigella flexneri ATCC 12022; read-out: Minimal Inhibitory Concentration (MIC)
Procedure: as §1, §2

Providencia rettgeri = conditions: Providencia rettgeri, ATCC31052, Providencia rettgeri ATCC 31052; read-out: Minimal Inhibitory Concentration (MIC)
Procedure: as §1, §2

Escherichia coli = conditions: Escherichia coli, read-out: Minimal Inhibitory Concentration (MIC)
Procedure: as §1, §2

Salmonella typhi = conditions: Salmonella enterica, TYPHI, read-out: Minimal Inhibitory Concentration (MIC)
Procedure: as §1, §2

Enterobacter cloacae = conditions: read-out: Minimal Inhibitory Concentration (MIC)
Procedure: as §1, §2

Serratia marcescens = conditions: ATCC21074; Serratia marcescens ATCC 21074; read-out: Minimal Inhibitory Concentration (MIC)
Procedure: as §1, §2

Acinetobacter baumannii = conditions: Acinetobacter baumannii, read-out: Minimal Inhibitory Concentration (MIC)
Procedure: as §1, §2

Pseudomonas aeruginosa = conditions: read-out: Minimal Inhibitory Concentration (MIC)
Procedure: as §1, §2

[1] = system: Stenotrophomonas maltophilia; conditions: ATCC13636; Stenotrophomonas maltophilia ATCC 13636; read-out: Minimal Inhibitory Concentration (MIC)
Procedure: as §1, §2

[2] = ATCC700603, Klebsiella Pneumoniae ATCC 700603, ESBLs(+)
[3] = ATCCBAA2146, Klebsiella Pneumoniae ATCC BAA-2146, NDM-1(+)
[4] = Klebsiella Pneumoniae 09-20, mcr-1(+)
[5] = Klebsiella Pneumoniae 16-2, ESBLs(−)
[6] = Klebsiella Pneumoniae 16-14, ESBLs(+)
[7] = Klebsiella Pneumoniae 17-R27, CRE
[8] = ATCC25922, Escherichia coli ATCC 25922, ESBLs(−)
[9] = ATCC35218, Escherichia coli ATCC 35218, ESBLs(+)
[10] = Escherichia coli 08-85, mcr-1(+)
[11] = Escherichia coli 13-43, mcr-1(+)
[12] = Escherichia coli 13-66, mcr-1(+)
[13] = Escherichia coli 16-1, ESBLs(+)
[14] = Escherichia coli 16-7, ESBLs(−)
[15] = Escherichia coli 17-R28, CRE, NDM-1(+)
[16] = Escherichia coli CDC1001728, NDM-1(+)
[17] = ATCC43560, Enterobacter cloacae ATCC 43560
[18] = Enterobacter cloacae CDC1000654
[19] = ATCC19606, Acinetobacter baumannii ATCC 19606
[20] = ATCC27853, Pseudomonas aeruginosa ATCC 27853

Measured: MIC

CC1(C)[C@H](NC(=O)/C(=N\OC2(C(=O)O)CC2)c2csc(N)n2)C(=O)N1OS(=O)(=O)O [Compound A-1]
4 µg/mL: Klebsiella Pneumoniae; [2] | Escherichia coli; [15]
64 µg/mL: Acinetobacter baumannii; Acinetobacter baumannii 16-16
32 µg/mL: Acinetobacter baumannii; Acinetobacter baumannii 16-33
0.12 µg/mL: Enterobacter aerogenes | Klebsiella Pneumoniae; [6] | Citrobacter freundii | Shigella flexneri | Escherichia coli; [8] | Escherichia coli; [10] | Escherichia coli; [11] | Escherichia coli; [12] | Escherichia coli; [14]
8 µg/mL: Pseudomonas aeruginosa; [20] | Pseudomonas aeruginosa; Pseudomonas aeruginosa 16-11 | [1]
2 µg/mL: Klebsiella Pneumoniae; [5] | Enterobacter cloacae; [18] | Pseudomonas aeruginosa; Pseudomonas aeruginosa PAO1
0.5 µg/mL: Klebsiella Pneumoniae; [3]
0.06 µg/mL: Klebsiella Pneumoniae; [4] | Escherichia coli; [9] | Escherichia coli; [13] | Salmonella typhi | Enterobacter cloacae; [17]
0.25 µg/mL: Klebsiella Pneumoniae; [7] | Escherichia coli; [16] | Serratia marcescens
16 µg/mL: Acinetobacter baumannii; [19]
≤ 0.03 µg/mL: Proteus mirabilis | Proteus vulgaris | Providencia rettgeri

C[C@H]1[C@H](NC(=O)/C(=N\OC(C)(C)C(=O)O)c2csc(N)n2)C(=O)N1S(=O)(=O)O [AZN, aztreonam, reference compound]
0.06 µg/mL: Klebsiella Pneumoniae; [5] | Escherichia coli; [8] | Escherichia coli; [14]
> 128 µg/mL: Klebsiella Pneumoniae; [3] | Enterobacter cloacae; [18] | Pseudomonas aeruginosa; Pseudomonas aeruginosa 16-11
0.12 µg/mL: Enterobacter aerogenes | Citrobacter freundii | Serratia marcescens
8 µg/mL: Escherichia coli; [11] | Escherichia coli; [12]
≤ 0.03 µg/mL: Proteus mirabilis | Proteus vulgaris | Providencia rettgeri | Escherichia coli; [9] | Escherichia coli; [13] | Salmonella typhi | Enterobacter cloacae; [17]
16 µg/mL: Escherichia coli; [15]
32 µg/mL: Klebsiella Pneumoniae; [2] | Acinetobacter baumannii; [19] | Acinetobacter baumannii; Acinetobacter baumannii 16-33 | [1]
4 µg/mL: Klebsiella Pneumoniae; [6] | Escherichia coli; [10] | Escherichia coli; [16] | Pseudomonas aeruginosa; [20] | Pseudomonas aeruginosa; Pseudomonas aeruginosa PAO1
0.25 µg/mL: Klebsiella Pneumoniae; [4] | Klebsiella Pneumoniae; [7] | Shigella flexneri
128 µg/mL: Acinetobacter baumannii; Acinetobacter baumannii 16-16

CC1(C)[C@H](NC(=O)/C(=N\OC2(C(=O)O)CCCCC2)c2csc(N)n2)C(=O)N1OS(=O)(=O)O [Compound A-7]
64 µg/mL: Escherichia coli; [15]
32 µg/mL: Acinetobacter baumannii; [19] | Acinetobacter baumannii; Acinetobacter baumannii 16-33 | Pseudomonas aeruginosa; [20] | Pseudomonas aeruginosa; Pseudomonas aeruginosa PAO1
2 µg/mL: Klebsiella Pneumoniae; [4] | Klebsiella Pneumoniae; [5] | Klebsiella Pneumoniae; [6] | Citrobacter freundii | Shigella flexneri | Escherichia coli; [10] | Escherichia coli; [11] | Escherichia coli; [12] | Escherichia coli; [14] | Escherichia coli; [16] | Serratia marcescens
0.25 µg/mL: Proteus vulgaris | Providencia rettgeri
> 64 µg/mL: Acinetobacter baumannii; Acinetobacter baumannii 16-16 | Pseudomonas aeruginosa; Pseudomonas aeruginosa 16-11
0.12 µg/mL: Proteus mirabilis
1 µg/mL: Escherichia coli; [9] | Escherichia coli; [13] | Enterobacter cloacae; [17]
8 µg/mL: Klebsiella Pneumoniae; [2] | Klebsiella Pneumoniae; [3]
4 µg/mL: Enterobacter aerogenes | Klebsiella Pneumoniae; [7] | Escherichia coli; [8] | Salmonella typhi
16 µg/mL: Enterobacter cloacae; [18] | [1]
